# Results: patent US8227616B2, “Cyanopyridine antibacterial agents and methods of use thereof” (Wisconsin Alumni Research Foundation, priority 2006, dated 2012)
# How the values were obtained:
# S. aureus ATCC 10390 [1] = assay: Estimated MIC, solution-phase microdilution absorbance assay with crude macroarray spot stock solutions; type: cell-based, Staphylococcus aureus; details: for inhibition of S. aureus at the 12.5 μM level: macroarray stock solutions diluted four fold; for MIC: Staphylococcus aureus, ATCC10390, 12 h
# Protocol: Spots from a new 69 member chalcone macroarray as well as the three heterocyclic macroarrays prepared earlier were punched out, cleaved, and eluted with acetonitrile. The resulting solutions were concentrated to a residue that was taken up in DMSO to form 2 mM stock solutions.
# From the stock solutions, microdilution assays in a 96 well plate starting at 50 μM were performed in quadruplicate. Each well contained 5 μL of the stock solution as well as 195 μL of a S. aureus culture. The turbidity of each well was measured after incubating 12 hours using a standard plate reader. Active compounds can be further diluted and the assay repeated.
# To acquire more quantitative antibacterial activity data about our compounds and verify our on-support assay results, we performed solution-phase absorbance assays that provided estimates of the minimum inhibitory concentration (MIC) of each macroarray member against S. aureus. Stock solutions (ca. 2 mM) were generated by cleaving and eluting 198 individual compounds from chalcone (3) and heterocyclic macroarrays (5, 7, and 8). […] The good overall purities of the crude macroarray compounds allowed for reasonable estimations of MICs.
# (§1) For estimated MIC determination, DMSO was added to the dried compound residue obtained from a single spot to afford ca. 100 μL of a 2 mM stock solution. Aliquots (5 μL) of these solutions were added to a 96-well plate, followed by 195 μL of diluted S. aureus 10390 (10^6 CFUs/mL) to yield ca. 50 μM final concentrations. The plates were swirled for 1 h to ensure compound dissolution, incubated for 12 h at 37° C., and the absorbance at 595 nm was recorded using a plate reader. […] Actual MIC values were determined for lead compounds resynthesized in solution using an analogous procedure with solutions of known concentration (see).
# Preparation of spot samples and controls. An aliquot of DMSO (ca. 100 μL depending on the loading of the parent hydroxyacetophenone) was added to the dried compound residue obtained after TFA cleavage and elution from a single spot. This afforded a 2.0 mM “spot stock” solution for each spot. A small aliquot of each “spot stock” solution was saved for subsequent LC-MS analysis.
# For estimated MIC screens, 5.0 μL portions of the “spot stock” solutions were added to the appropriate wells in a sterile, polystyrene 96-well plate to yield ca. 50 μM solutions (dependent on the initial loading of hydroxyacetopheneone and compound purity). To the positive and negative control wells, 5.0 μL of DMSO were added (positive controls contained bacteria but no compound, while negative controls had neither compound nor bacteria). All estimated MIC assays were performed in quadruplicate. Note: the MIC value is defined as the lowest concentration where no bacterial growth occurs.
# Representative estimated MIC assay procedure. This assay procedure is based in part on the method reported by Strøm et al.^xiii A 400 μL portion of overnight S. aureus 10390 culture was diluted with 100 mL of sterile LB broth to give ca. 10^6 CFUs per mL. Aliquots (195 μL) of this solution were added to all of the wells in a sterile 96-well plate (except for the negative control wells; 195 μL of sterile LB broth were added to these wells). The plates were placed on an orbital shaker table and gently swirled for 1 h to ensure compound dissolution, and then incubated (without shaking) for 12 h at 37° C. The absorbance at 595 nm was recorded using a plate reader.
# The original “spot stock” solutions of these compounds were diluted with DMSO to give ca. 25 and 13 μM final concentrations and tested for inhibitory activities using the procedure described above.
# S. aureus ATCC 10390 [2] = assay: MIC determination with authentic compounds resynthesized in solution; type: cell-based, Staphylococcus aureus; design: MIC against S. aureus 10390: unit: uM; details: for MIC: Staphylococcus aureus, ATCC10390; for MIC against S. aureus 10390: values quoted in killing-curve protocol, unit not given
# Protocol: as §1
# (§2) Dose response growth inhibition curves were determined for each active compound (resynthesized in solution) against S. aureus 10390 (SA) and methicillin-resistant S. aureus 33591 (MRSA). […] MIC assays were performed in quadruplicate.
# [3] = tested on: B. subtilis subsp. spizizenii ATCC 6633; assay: MIC determination, species selectivity; type: cell-based; details: Bacillus subtilis, ATCC6633; authentic sample, only trans isomers of chalcones; error reflects step size
# Protocol: (§3) Each compound from Table 3 was tested for inhibitory activity at 2.5, 5, 7.5, 10, 15, 20, 25, and 30 μM in the susceptible overlaid strains: B. subtilis ATCC 6633, S. epidermidis ATCC 12228, and K. pneumoniae ATCC 4352. MIC assays were run in quadruplicate as described above (with shaking).
# [4] = tested on: S. epidermidis ATCC 12228; assay: MIC determination, species selectivity; type: cell-based; details: Staphylococcus epidermidis, ATCC12228; authentic sample, only trans isomers of chalcones; error reflects step size
# Protocol: as §3
# [5] = tested on: Methicillin-resistant S. aureus ATCC 33591 (MRSA); assay: MIC determination with authentic compounds resynthesized in solution; type: cell-based; details: Staphylococcus aureus; Table 3; authentic sample, only trans isomers of chalcones; error reflects step size in the serial dilutions
# Protocol: as §1, §2
# S. aureus 10390 = assay: Time-dependent bacterial killing curves; type: cell-based, Staphylococcus aureus; details: 0.5x to 4x MIC, 0-6 h
# Protocol: Solutions of compounds 4Bv, 6Ao, 9Cf, and linezolid were prepared in DMSO over a range of concentrations. […] At 0, 2, 4, and 6 h time points, […] samples were withdrawn from the test tubes, diluted into 10 mL of LB broth in a test tube, and swabbed in duplicate on agar plates to determine CFUs. These plates were incubated at 37° C. for 24 h, after which time the colonies were counted visually. […] Instead, 200 μL was removed from the test tube and directly swabbed on the agar plates.
# S. aureus ATCC 10390 [6] = assay: Kirby-Bauer disk diffusion assay on compound spots from cleaved macroarray; type: cell-based, Staphylococcus aureus; details: loadings 30 μg/spot, 18 h incubation
# Protocol: While the heterocyclic libraries were being synthesized, the chalcone macroarrays were analyzed using various direct assay techniques such as the Kirby-Bauer disk diffusion assay (FIG. 2E). Bauer, A. W.; Kirby, […].; Turck, M. Technical Bulletin of the Registry of Medical Technologists 1966, 36, 49-52. For this assay, the macroarray members are punched out from the membrane, cleaved from the support with TFA vapor, neutralized with ammonia vapor, and then placed on an agar bed inoculated with S. aureus. After incubating overnight, different diameters of zones of inhibition are measured as a factor of potency as well as solubility in the medium. Ammonia vapor neutralization was key in the disk diffusion assay, otherwise residual TFA vapor created a false positive signature. However, in this method, macroarrays have to be made in triplicate one for a replicate and one for compound characterization. We first evaluated test chalcone macroarrays (3) in antibacterial assays against S. aureus. Because the macroarrays were prepared on cellulose filter paper, we had convenient access to the compounds in disk form for standard disk diffusion assays. Compound spots were punched out of the macroarrays, subjected to vapor phase cleavage with acid (TFA), and neutralized (NH3) to afford disks containing ca. 30 μg of adsorbed compound [8]. These disks were manually placed on lawns of S. aureus, and zones of inhibition were measured after an 18 h incubation period. […] However, this antibacterial assay format had drawbacks: (1) the entire sample of compound was consumed during the assay, and thus replicate arrays needed to be synthesized to confirm activity, and (2) manipulating large numbers of compound disks was relatively labor intensive. Compound spots were cleaved with TFA and neutralized with NH3 as described herein. […] Compound spots were placed onto the agar, the plate was incubated at 37° C. for 18 h, and the diameters of the zones of inhibition were measured. […] Compound spots were subjected to the TFA cleavage conditions described above. The spots were next subjected to NH3 vapor to neutralize any remaining TFA. […] Vials containing the spots (or intact macroarrays) were placed inside a small evaporating dish, and this was placed into the NH4OH solution. The Pyrex dish was covered, and NH3 vapor was allowed to slowly diffuse into the vials. After 1 h, the vials were removed from the NH3 chamber, and the spots were allowed to stand open in a fume hood for at least 15 min to vent prior to analysis in the following assays. This afforded dry, paper disks containing adsorbed compound. […] The plates were removed, and the diameters of the zones of inhibition were measured in mm using a ruler (see FIG. 1A).
# [7] = Table 2, serial dilution of stock solutions obtained by SPOT-synthesis, read-out: estimated MIC range
# [8] = Table 3, serial dilution of spot stock solutions of crude macroarray compounds, read-out: S. aureus Estimated MIC range
# [9] = Table 2, authentic sample synthesized according to standard techniques, read-out: observed MIC
# [10] = Table 3, authentic sample, only trans isomers of chalcones, error reflects step size in the serial dilutions, read-out: S. aureus MIC
Compound,MIC (S. aureus ATCC 10390 [1]; [7]) [µM],MIC (S. aureus ATCC 10390 [1]; [8]) [µM],MIC (S. aureus ATCC 10390 [2]; [9]) [µM],MIC (S. aureus ATCC 10390 [2]; [10]) [µM],MIC [3] [µM],MIC [4] [µM],MIC [5] [µM],inhibition of S. aureus at the 12.5 μM level (S. aureus ATCC 10390 [1]),MIC against S. aureus 10390 (S. aureus ATCC 10390 [2]),mode of activity (bacteriostatic or bactericidal) (S. aureus 10390),Zones of inhibition (S. aureus ATCC 10390 [6]) [mm]
"Cc1nc(-c2ccc(O)cc2)cc(-c2c(Cl)ccc(Cl)c2Cl)c1C#N [Compound 6Ao, 6-(4-hydroxyphenyl)-2-methyl-4-(2,3,6-trichlorophenyl)-3-cyanopyridine]",6.25 to 12.5,< 12.5,6 ± 0.5,7.5 ± 1.2,3.8 ± 1.2,6.3 ± 1.2,7.5 ± 1.2,complete inhibition,~7.5,bactericidal,
"CN[C@H](CC(C)C)C(=O)N[C@H]1C(=O)N[C@@H](CC(N)=O)C(=O)N[C@H]2C(=O)N[C@H]3C(=O)N[C@H](C(=O)N[C@H](C(=O)O)c4cc(O)cc(O)c4-c4cc3ccc4O)[C@H](O)c3ccc(c(Cl)c3)Oc3cc2cc(c3O[C@@H]2O[C@H](CO)[C@@H](O)[C@H](O)[C@H]2O[C@H]2C[C@](C)(N)[C@H](O)[C@H](C)O2)Oc2ccc(cc2Cl)[C@H]1O [vancomycin, reference compound]",,,,,,,,,,,20

# Second part, led by results:
MIC (S. aureus ATCC 10390 [1]; [7]) [µM],MIC (S. aureus ATCC 10390 [1]; [8]) [µM],MIC (S. aureus ATCC 10390 [2]; [9]) [µM],MIC (S. aureus ATCC 10390 [2]; [10]) [µM],MIC [3] [µM],MIC [4] [µM],MIC [5] [µM],Compound,inhibition of S. aureus at the 12.5 μM level (S. aureus ATCC 10390 [1]),MIC against S. aureus 10390 (S. aureus ATCC 10390 [2]),mode of activity (bacteriostatic or bactericidal) (S. aureus 10390),Zones of inhibition (S. aureus ATCC 10390 [6]) [mm]
6.25 to 12.5,< 12.5,10 ± 1,11.6 ± 0.9,22.5 ± 2.5,17.5 ± 2.5,13.4 ± 0.9,"Cc1nc(-c2cccc(O)c2)cc(-c2ccc(Cl)cc2Cl)c1C#N [Compound 6Bt, 4-(2,4-dichlorophenyl)-6-(3-hydroxyphenyl)-2-methyl-3-cyanopyridine]",complete inhibition,,,
,25 to 50,,32.5 ± 1.2,17.5 ± 2.5,> 30,31.2 ± 1.2,"COc1cc(-c2cc(-c3ccc(Br)cc3)nc(C)n2)ccc1O [Compound 9Cf, 4-(4-bromophenyl)-6-(4-hydroxy-3-methoxyphenyl)-2-methylpyrimidine]",,~32.5,bacteriostatic,
,,6 ± 0.5,10 ± 1,,,8 ± 1,"CC(=O)NC[C@H]1CN(c2ccc(N3CCOCC3)c(F)c2)C(=O)O1 [Linezolid, linezolid, reference compound]",,~10.0,bacteriostatic,
